Read-outs that look alike come from different tables or passages of the source.
Legend:
[1] = tested on: Mes-Sa-B1 cells (Pgp overexpressing); assay: Fluorescence-based cytotoxicity assay, Mes-Sa-B1 mOr
Description: (§1) After the transduction, cell lines were tested by flow cytometry and were sorted based on transporter expression/function, and in the case of the OATP2B1-expressing cell line, on CD4 protein expression. Parental, SLCO2B1, ABCG2 and ABCB1 overexpressing cell lines were transduced with the fluorescent protein expressing lentiviral supernatants produced with pRRL-EF1-mCherry, -mOrange or -eGFP expression plasmid in a second round of transduction. Mes-Sa/Dx5-eGFP cells were repeatedly cultured in 500 nM doxorubicin to ensure homogenous expression of Pgp. […] Functional expression of ABCB1 and ABCG2 was regularly checked with cytotoxicity assays using mitoxantrone in the absence or presence of tariquidar.
(§2) All experiments were performed using a robotic pipetting workstation (Hamilton Robotics STAR Let). Cells were seeded at a final cell density of 1875 cells per well in 384-well plates in the triple co-culture (625 cells from each lines) and at 2500 cells per well in the A431 control and A431-2B1 co-culture (1250 cells from both) systems. Co-cultured cells were incubated for 24 h at 37 °C and 5% CO2 under humidified atmosphere prior to the addition of drugs. […] Data were exported to a custom-made program for determining growth inhibition curves for each cell line.
(§3) In the primary screening, IC50 was estimated by the intercept of the linear regression fitted on nearest values. In the confirmatory screening, IC50 values were obtained by sigmoidal curve fitting using the GraphPad Prism software. […] The Resistance Ratio (RR) was calculated by dividing the IC50 values measured against the multidrug resistant, transporter-expressing derivative by the cytotoxicity measured in the parental cell line; the Selectivity Ratio (SR) is the inverse of RR.

Mes-Sa/Dx5 cells = assay: Fluorescence-based cytotoxicity assay, Mes-Sa/Dx5 eGFP; settings: for RR (Dx5): resistance ratio = IC50 Mes-Sa/Dx5 / IC50 parental Mes-Sa
Description: as §1, §2, §3

[2] = tested on: A431-B1 cells (ABCB1/P-glycoprotein expressing); assay: Fluorescence-based cytotoxicity assay, ABCB1-expressing A431-B1 mCh
Description: All cell lines were cultured at 37 °C, 5% CO2, in Dulbecco’s Modified Eagle’s Medium (DMEM, SigmaAldrich, 52100047), supplemented with 10% FBS, 2 mM L-glutamine and 100 units/mL penicillin and 100 µg/mL streptomycin (ThermoFisher).
as §2
In the primary screening, IC50 was estimated by the intercept of the linear regression fitted on nearest values. In the confirmatory screening, IC50 values were obtained by sigmoidal curve fitting using the GraphPad Prism software. […] The Resistance Ratio (RR) was calculated by dividing the IC50 values measured against the multidrug resistant, transporter-expressing derivative by the cytotoxicity measured in the parental cell line; the Selectivity Ratio (SR) is the inverse of RR. Differences were considered to be biologically relevant at RR > 3 or SR > 3.

[3] = tested on: A431-G2 cells (ABCG2 expressing); assay: Fluorescence-based cytotoxicity assay, ABCG2-expressing A431-G2 mOr
Description: as §1, §2, §3

[4] = tested on: A431-2B1 cells (OATP2B1 expressing); assay: Fluorescence-based cytotoxicity assay, OATP2B1-expressing A431-2B1 mCh
Description: as §1, §2, §3

A431 cells = assay: Fluorescence-based cytotoxicity assay, parental A431 eGFP; settings: Homo sapiens
Description: as §1
All experiments were performed using a robotic pipetting workstation (Hamilton Robotics STAR Let). […]
In the primary screening, IC50 was estimated by the intercept of the linear regression fitted on nearest values. […] The Resistance Ratio (RR) was calculated by dividing the IC50 values measured against the multidrug resistant, transporter-expressing derivative by the cytotoxicity measured in the parental cell line; the Selectivity Ratio (SR) is the inverse of RR.

OATP2B1 = assay: Fluorescence-based cytotoxicity assay, OATP2B1-expressing A431-2B1 mCh; settings: human
[5] = resistance ratio = IC50 Mes-Sa-B1 / IC50 parental Mes-Sa, triple co-culture screen
[6] = resistance ratio = IC50 A431B1 / IC50 parental A431, triple co-culture screen
[7] = triple co-culture, result in words
[8] = primary screen, co-culture, Fig. 4 inset
[9] = selectivity ratio = IC50 parental Mes-Sa / IC50 Mes-Sa-B1, triple co-culture screen
[10] = selectivity ratio = IC50 parental Mes-Sa / IC50 Mes-Sa/Dx5, triple co-culture screen

CC(C)C[C@H](NC(=O)[C@H](Cc1ccccc1)NC(=O)c1cnccn1)B(O)O [bortezomib]
RR (Mes-Sa-B1) [1, 5]: 4.3
RR (Dx5) (Mes-Sa/Dx5 cells; triple co-culture screen): 17
RR (A431B1) [2, 6]: 2.7

C/C(=C\c1csc(C)n1)[C@@H]1C[C@@H]2O[C@]2(C)CCC[C@H](C)[C@H](O)[C@@H](C)C(=O)C(C)(C)[C@@H](O)CC(=O)N1 [NSC-747973, Ixabepilone]
RR (Mes-Sa-B1) [1]: >208.3
RR (Dx5) (Mes-Sa/Dx5 cells; triple co-culture screen): 9.66
RR (A431B1) [2]: 23.32

CC[C@@]1(O)C(=O)OCc2c1cc1n(c2=O)Cc2cc3c(CN(C)C)c(O)ccc3nc2-1 [topotecan]
Effect of ABCG2 expression on toxicity (A431-G2 vs parental A431) [3, 7]: conferred resistance

Nc1ccn([C@@H]2O[C@H](CO)[C@@H](O)C2(F)F)c(=O)n1 [NSC-613327, Gemcitabine]
SR (A431-2B1 vs parental A431), screening of DTP Oncology Set IV [4, 8]: 16.5

CC(=O)O[C@H]1C(=O)[C@@]2(C)[C@H]([C@H](OC(=O)c3ccccc3)[C@]3(O)C[C@H](OC(=O)[C@H](O)[C@@H](NC(=O)c4ccccc4)c4ccccc4)C(C)=C1C3(C)C)[C@]1(OC(C)=O)CO[C@@H]1C[C@@H]2O [NSC-125973, Taxol]
RR (Mes-Sa-B1) [1, 5]: 593.3
RR (Dx5) (Mes-Sa/Dx5 cells; triple co-culture screen): 497.67
RR (A431B1) [2, 6]: 50.91
Effect of OATP2B1 expression on toxicity (A431-2B1 vs A431 eGFP) ([4]; co-culture screen, result in words): not transported by OATP2B1

C1CN1c1nc(N2CC2)nc(N2CC2)n1 [NSC-9706, Triethylenemelamine]
SR (Mes-Sa/DX5) (Mes-Sa/Dx5 cells): 26.62

C/C=C1\NC(=O)[C@H]2CSSCC/C=C/[C@H](CC(=O)N[C@H](C(C)C)C(=O)N2)OC(=O)[C@H](C(C)C)NC1=O [NSC-754143, Romidepsin]
RR (Mes-Sa-B1) [1]: 331.70
RR (Dx5) (Mes-Sa/Dx5 cells; triple co-culture screen): > 234.15
RR (A431B1) [2]: > 97

C[C@@H](Oc1cc(-c2cnn(C3CCNCC3)c2)cnc1N)c1c(Cl)ccc(F)c1Cl [crizotinib]
RR (Mes-Sa-B1) [1, 5]: 9.9
RR (Dx5) (Mes-Sa/Dx5 cells; triple co-culture screen): 21.3
RR (A431B1) [2, 6]: 2.6

O=c1[nH]c(=O)n([C@H]2C[C@H](O)[C@@H](CO)O2)cc1F [NSC-27640, Floxuridin]
SR (A431-2B1 vs parental A431), screening of DTP Oncology Set IV [4, 8]: 12.31

CCC1=C[C@@H]2CN(C1)Cc1c([nH]c3ccccc13)[C@@](C(=O)OC)(c1cc3c(cc1OC)N(C)[C@H]1[C@@](O)(C(=O)OC)[C@H](OC(C)=O)[C@]4(CC)C=CCN5CC[C@]31[C@@H]54)C2 [NSC-608210, Vinorelbine]
RR (Mes-Sa-B1) [1, 5]: 725.00
RR (Dx5) (Mes-Sa/Dx5 cells; triple co-culture screen): 861.00
RR (A431B1) [2, 6]: 232.00

S=c1[nH]cnc2nc[nH]c12 [NSC-755, Mercaptopurine]
SR (Mes-Sa-B1) [1, 9]: 0.39
SR (Mes-Sa/DX5) (Mes-Sa/Dx5 cells; [10]): 3.87
Effect of ABCG2 expression on toxicity (A431-G2 vs parental A431) [3, 7]: conferred resistance

Nc1ccn([C@@H]2O[C@H](CO)[C@@H](O)[C@@H]2O)c(=O)n1 [NSC-63878, Cytarabine]
SR (A431-2B1 vs parental A431), screening of DTP Oncology Set IV [4]: > 18.12

CS(=O)(=O)CCNCc1ccc(-c2ccc3ncnc(Nc4ccc(OCc5cccc(F)c5)c(Cl)c4)c3c2)o1 [lapatinib]
Effect of ABCG2 expression on toxicity (A431-G2 vs parental A431) [3, 7]: conferred resistance

COc1cc2ncnc(Nc3ccc(F)c(Cl)c3)c2cc1OCCCN1CCOCC1 [gefitinib]
Effect of ABCG2 expression on toxicity (A431-G2 vs parental A431) [3, 7]: conferred resistance

CS(=O)(=O)c1ccc(C(=O)Nc2ccc(Cl)c(-c3ccccn3)c2)c(Cl)c1 [NSC-755986, Vismodegib]
SR (Mes-Sa/DX5) (Mes-Sa/Dx5 cells; [10]): > 3.31

CCc1c2c(nc3ccc(OC(=O)N4CCC(N5CCCCC5)CC4)cc13)-c1cc3c(c(=O)n1C2)COC(=O)[C@]3(O)CC [NSC-616348, Irinotecan]
IC50 (A431 cells; A-431, read-out: IC50 (µM) A431 eGFP, co-culture): 13.8 µM
IC50 (A431 cells; A-431, read-out: IC50 (µM) A431 eGFP, monoculture): 11.1 µM
Effect of ABCG2 expression on toxicity (A431-G2 vs parental A431) [3]: conferred resistance

CC[C@]1(O)C[C@H]2CN(CCc3c([nH]c4ccccc34)[C@@](C(=O)OC)(c3cc4c(cc3OC)N(C=O)[C@H]3[C@@](O)(C(=O)OC)[C@H](OC(C)=O)[C@]5(CC)C=CCN6CC[C@]43[C@@H]65)C2)C1 [NSC-67574, Vincristine]
RR (Mes-Sa-B1) [1, 5]: 38.00
RR (Dx5) (Mes-Sa/Dx5 cells; triple co-culture screen): 36.00
RR (A431B1) [2, 6]: 56.8

Nc1nc(Cl)nc2c1ncn2[C@@H]1O[C@H](CO)[C@@H](O)[C@@H]1F [NSC-606869, Clofarabine]
SR (Mes-Sa-B1) [1]: 0.91
SR (Mes-Sa/DX5) (Mes-Sa/Dx5 cells; [10]): 3.44
Effect of ABCG2 expression on toxicity (A431-G2 vs parental A431) [3]: conferred resistance

CC(C)C[C@H](NC(=O)[C@H](CCc1ccccc1)NC(=O)CN1CCOCC1)C(=O)N[C@@H](Cc1ccccc1)C(=O)N[C@@H](CC(C)C)C(=O)[C@@]1(C)CO1 [NSC-758252, Carfilzomib]
RR (Mes-Sa-B1) [1, 5]: 55.50
RR (Dx5) (Mes-Sa/Dx5 cells; triple co-culture screen): 88.00
RR (A431B1) [2, 6]: 47.4

Nc1nc2nc[nH]c2c(=S)[nH]1 [NSC-752, Thioguanine]
SR (Mes-Sa-B1) [1, 9]: 0.41
SR (Mes-Sa/DX5) (Mes-Sa/Dx5 cells; [10]): 6.93

Cc1cn(-c2cc(NC(=O)c3ccc(C)c(Nc4nccc(-c5cccnc5)n4)c3)cc(C(F)(F)F)c2)cn1 [NSC-747599, Nilotinib]
SR (Mes-Sa-B1) [1, 9]: 1.23
SR (Mes-Sa/DX5) (Mes-Sa/Dx5 cells; [10]): 4.68

CC[C@]1(O)C[C@@H]2CN(CCc3c([nH]c4ccccc34)[C@@](C(=O)OC)(c3cc4c(cc3OC)N(C)[C@H]3[C@@](O)(C(=O)OC)[C@H](OC(C)=O)[C@]5(CC)C=CCN6CC[C@]43[C@@H]65)C2)C1 [NSC-49842, Vinblastine]
RR (Mes-Sa-B1) [1, 5]: 15.00
RR (Dx5) (Mes-Sa/Dx5 cells; triple co-culture screen): 11.00
RR (A431B1) [2, 6]: 244.4

Nc1nc2[nH]cc(CCc3ccc(C(=O)N[C@@H](CCC(=O)O)C(=O)O)cc3)c2c(=O)[nH]1 [NSC-698037, Pemetrexed]
SR (Mes-Sa-B1) [1, 9]: 1.14
SR (Mes-Sa/DX5) (Mes-Sa/Dx5 cells; [10]): 3.29

Cc1nc(Nc2ncc(C(=O)Nc3c(C)cccc3Cl)s2)cc(N2CCN(CCO)CC2)n1 [NSC-732517, Dasatinib]
RR (Mes-Sa-B1) [1, 5]: 3.147
RR (Dx5) (Mes-Sa/Dx5 cells; triple co-culture screen): > 3.60
RR (A431B1) [2]: 11.5
Effect of ABCG2 expression on toxicity (A431-G2 vs parental A431) [3]: conferred resistance

CO[C@H]1C(=O)[C@]2(C)[C@@H](OC)C[C@H]3OC[C@@]3(OC(C)=O)[C@H]2[C@H](OC(=O)c2ccccc2)[C@]2(O)C[C@H](OC(=O)[C@H](O)[C@@H](NC(=O)OC(C)(C)C)c3ccccc3)C(C)=C1C2(C)C [NSC-761432, Cabazitaxel]
RR (Mes-Sa-B1) [1, 5]: 63.00
RR (Dx5) (Mes-Sa/Dx5 cells; triple co-culture screen): > 107.00
RR (A431B1) [2, 6]: 6.00

Source: paper PMC6510822, “Identification of anticancer OATP2B1 substrates by an in vitro triple-fluorescence-based cytotoxicity screen” (Archives of Toxicology, 2019)
